A short description of series [1]: Air stability observation. Format: physicochemical. Conditions: solid and solution states.
Series [2] is described as follows: Solubility in benzene quantified by 1H NMR of saturated C6D6 solutions. Type of series: physicochemical. As to conditions: 1H NMR against ferrocene internal standard. On the procedure: The absence of mixed-metal dimer formation prompted a search for conditions where the dimerization of Nd(TriNOx)THF could be exploited for solubility differences between the Nd and Dy species. […] These solubilities were quantified by ^1H NMR spectroscopy, where saturated C6D6 solutions of the complexes were prepared and measured against a ferrocene internal standard.

The text below walks through data of US10704122B2, “Simple chemical method for the separation of rare earth metals” (THE TRUSTEES OF THE UNIVERSITY OF PENNSYLVANIA, priority 2014, dated 2020).

Consider `CC(C)(C)N(O)c1ccccc1CN(Cc1ccccc1N(O)C(C)(C)C)Cc1ccccc1N(O)C(C)(C)C` [H3TriNOx, tris(2-tert-butylhydroxylaminato)benzylamine], for which the air stability result in series [1] was “air stable in both the solid and solution states”.
Consider “Dy[(2-(^tBuNOH)CH2—C6H4)3N]THF [Dy(TriNOx)THF]”, for which the solubility in benzene in series [2] was found to be 1.2 mM.
Same read-out and setting: with “Nd[(2-(^tBuNOH)CH2—C6H4)3N]THF [Nd(TriNOx)THF]” the figure was 60 mM.
